Data: ChEMBL document CHEMBL1201862, “PubChem BioAssay data set” (2004)
The source made the active and inactive calls.

How the values were obtained:
Major prion protein = Major prion protein (Homo sapiens, UniProt P04156); type: functional, cell-based
cells [1] = assay: cells
[2] = biological target: T1, Heat shock factor protein 1 (Mus musculus, UniProt P38532); assay: HSF1 potentiators in luciferase reporter cells, confirmation, cell-based, NIH3T3, luminescence, dose retest (AID 435004); type: functional;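 note: stress induced by proteasome inhibitor MG132 added 30 min after compound; luciferase reporter driven by HSF1 response element in NIH3T3 cells; actives raise luminescence as potentiators of the MG132 stress response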
T1 sequence (P38532 whole entry): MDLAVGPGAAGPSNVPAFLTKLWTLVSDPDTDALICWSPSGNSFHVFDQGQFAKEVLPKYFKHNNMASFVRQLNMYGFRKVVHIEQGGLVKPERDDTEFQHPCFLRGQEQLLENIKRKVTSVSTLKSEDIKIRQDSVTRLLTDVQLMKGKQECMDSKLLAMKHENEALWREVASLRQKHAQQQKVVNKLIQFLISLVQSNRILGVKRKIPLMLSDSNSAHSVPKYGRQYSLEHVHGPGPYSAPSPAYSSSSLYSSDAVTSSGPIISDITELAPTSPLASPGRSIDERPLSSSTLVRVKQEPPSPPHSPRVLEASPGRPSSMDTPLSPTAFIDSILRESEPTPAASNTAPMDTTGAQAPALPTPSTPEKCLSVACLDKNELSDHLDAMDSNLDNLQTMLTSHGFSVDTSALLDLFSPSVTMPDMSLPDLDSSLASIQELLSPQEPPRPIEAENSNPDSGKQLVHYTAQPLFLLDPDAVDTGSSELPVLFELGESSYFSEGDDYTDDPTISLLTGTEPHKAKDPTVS

cells [3] = type: functional, cell-based
[4] = biological target: T2, Trace amine-associated receptor 1 (Homo sapiens, UniProt Q96RJ0); assay: Fluorescence-based cell-based high throughput dose response assay to identify agonists of the human trace amine associated receptor 1 (TAAR1).; type: functional
T2 sequence (Q96RJ0 whole entry): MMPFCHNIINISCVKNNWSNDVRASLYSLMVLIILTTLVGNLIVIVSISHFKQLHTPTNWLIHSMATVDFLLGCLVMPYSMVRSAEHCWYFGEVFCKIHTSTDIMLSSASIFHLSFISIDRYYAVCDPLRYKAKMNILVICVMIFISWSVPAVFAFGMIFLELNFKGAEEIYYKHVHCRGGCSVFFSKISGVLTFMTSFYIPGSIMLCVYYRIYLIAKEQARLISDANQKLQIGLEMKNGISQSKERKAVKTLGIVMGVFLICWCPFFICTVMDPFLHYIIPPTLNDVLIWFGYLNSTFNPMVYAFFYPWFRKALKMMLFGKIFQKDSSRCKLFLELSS

[5] = biological target: T2, Trace amine-associated receptor 1; assay: Counterscreen for agonists of the human trace amine associated receptor 1 (hTAAR1): Fluorescence-based cell-based high throughput dose response assay to identify hTAAR1 agonist that also desensitize TAAR1 receptor response.; type: functional
cells [6] = type: functional, cell-based; remark: listed apart in the source
Vero = assay: cells; type: functional; settings: Chlorocebus sabaeus
[7] = biological target: T3, Small ubiquitin-related modifier 1 (Homo sapiens, UniProt P63165); assay: inhibitors of SUMO1 peptide binding, dose response, biochemical, fluorescence polarization, uHTS hits (AID 624382); type: functional; settings: read-out: IC50_Mean
[8] = biological target: T3, Small ubiquitin-related modifier 1; assay: inhibitors of SUMO1 partner interactions, dose response, biochemical, FRET (AID 624383); type: functional; settings: read-out: IC50_Mean
[9] = biological target: T4, Low molecular weight phosphotyrosine protein phosphatase (Homo sapiens, UniProt P24666); type: functional; settings: read-out: IC50_Mean;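 note: Dose-response confirmation assay measuring inhibition of LMPTP enzyme activity by fluorescence intensity read-out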
T4 sequence (P24666 whole entry): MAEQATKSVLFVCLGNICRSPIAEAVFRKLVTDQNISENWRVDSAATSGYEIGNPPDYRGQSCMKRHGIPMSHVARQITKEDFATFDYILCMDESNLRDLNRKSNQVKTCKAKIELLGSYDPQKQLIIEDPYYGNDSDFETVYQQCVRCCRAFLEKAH

[10] = biological target: Disintegrin and metalloproteinase domain-containing protein 17 (Homo sapiens, UniProt P78536); assay: exosite inhibitors of ADAM17, dose response, biochemical (AID 743260)
[11] = ADAM10 protease inhibitors, dose response, selectivity assay for ADAM17 exosite inhibitor project, biochemical, FRET peptide substrate, recombinant human ADAM10 (AID 743259);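 note: ADAM10 enzyme cleaving a FRET peptide substrate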
[12] = CEM21 lymphoblast cell cytotoxicity, dose response, cytotoxicity control for viral fusion inhibitor project, CellTiter-Glo luminescence, cherry-picked (AID 652042); type: functional, cell-based;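 note: potency for signal decrease meaning cytotoxicity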
[13] = off-target signal loss in HeLa-CEM21 co-culture – HeLa F-luc CTL cells, cherry-picked, counter-screen for HIV-1 Env fusion inhibitor project, dose response (AID 652040); type: functional, cell-based;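 note: potency for signal decrease marking cytotoxic or nonspecific inhibition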
[14] = inhibitors of clade B AD8 Env fusion, dose response, cell-based, cherry-pick (AID 652062); type: functional;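 note: luciferase signal from cell-cell fusion driven by HIV-1 clade B AD8 Env; potency is for inhibitors of fusion seen as a drop in luminescence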
[15] = biological target: COUP transcription factor 2 (Homo sapiens, UniProt P24468); assay: Luminescence-based cell-based high throughput dose response assay to identify inhibitors of COUP-TFII (NR2F2).; type: functional;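 note: HEK293 cells transiently cotransfected with COUP-TFII expression vector and reporter; luciferase reporter luminescence driven by COUP-TFII from the pX2-168 reporter plasmid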
[16] = biological target: T5, Replicative DNA helicase DnaB (Mycobacterium tuberculosis, UniProt P9WMR3); assay: DnaB intein splicing inhibitors, dose response, biochemical, cell-free fluorescence (AID 449749); type: functional
T5 sequence (P9WMR3 whole entry): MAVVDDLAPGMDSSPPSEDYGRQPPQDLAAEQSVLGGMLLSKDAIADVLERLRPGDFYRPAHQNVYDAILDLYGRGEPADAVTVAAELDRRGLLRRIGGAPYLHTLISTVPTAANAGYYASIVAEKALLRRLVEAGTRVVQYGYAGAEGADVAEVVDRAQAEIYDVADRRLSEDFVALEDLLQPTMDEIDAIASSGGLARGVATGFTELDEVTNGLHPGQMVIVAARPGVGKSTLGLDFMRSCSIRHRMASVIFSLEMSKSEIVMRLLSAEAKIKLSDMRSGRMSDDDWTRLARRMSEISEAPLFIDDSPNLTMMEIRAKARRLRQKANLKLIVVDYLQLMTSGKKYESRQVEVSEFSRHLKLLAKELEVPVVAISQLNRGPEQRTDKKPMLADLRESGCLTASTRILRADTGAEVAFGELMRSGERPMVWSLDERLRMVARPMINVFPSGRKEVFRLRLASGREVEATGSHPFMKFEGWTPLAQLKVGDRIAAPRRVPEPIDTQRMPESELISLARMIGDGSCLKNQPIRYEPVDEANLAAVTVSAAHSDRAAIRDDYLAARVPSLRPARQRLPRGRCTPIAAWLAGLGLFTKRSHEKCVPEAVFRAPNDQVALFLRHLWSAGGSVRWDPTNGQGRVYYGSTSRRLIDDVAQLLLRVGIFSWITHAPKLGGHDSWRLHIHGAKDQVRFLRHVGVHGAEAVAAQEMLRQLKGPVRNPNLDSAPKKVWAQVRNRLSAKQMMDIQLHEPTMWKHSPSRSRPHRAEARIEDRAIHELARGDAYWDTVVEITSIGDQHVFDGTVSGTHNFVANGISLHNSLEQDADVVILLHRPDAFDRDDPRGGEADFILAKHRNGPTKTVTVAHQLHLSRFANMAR

Protein RecA = biological target: T6, Protein RecA (Mycobacterium tuberculosis, UniProt P9WHJ3); assay: Fluorescence Cell-Free Homogeneous Dose Retest to Identify Inhibitors of RecA-Intein Splicing Activity. [Related pubchem assays (depositor defined):AID2097, AID2223, AID489010, AID492950]; type: functional
T6 sequence (P9WHJ3 whole entry): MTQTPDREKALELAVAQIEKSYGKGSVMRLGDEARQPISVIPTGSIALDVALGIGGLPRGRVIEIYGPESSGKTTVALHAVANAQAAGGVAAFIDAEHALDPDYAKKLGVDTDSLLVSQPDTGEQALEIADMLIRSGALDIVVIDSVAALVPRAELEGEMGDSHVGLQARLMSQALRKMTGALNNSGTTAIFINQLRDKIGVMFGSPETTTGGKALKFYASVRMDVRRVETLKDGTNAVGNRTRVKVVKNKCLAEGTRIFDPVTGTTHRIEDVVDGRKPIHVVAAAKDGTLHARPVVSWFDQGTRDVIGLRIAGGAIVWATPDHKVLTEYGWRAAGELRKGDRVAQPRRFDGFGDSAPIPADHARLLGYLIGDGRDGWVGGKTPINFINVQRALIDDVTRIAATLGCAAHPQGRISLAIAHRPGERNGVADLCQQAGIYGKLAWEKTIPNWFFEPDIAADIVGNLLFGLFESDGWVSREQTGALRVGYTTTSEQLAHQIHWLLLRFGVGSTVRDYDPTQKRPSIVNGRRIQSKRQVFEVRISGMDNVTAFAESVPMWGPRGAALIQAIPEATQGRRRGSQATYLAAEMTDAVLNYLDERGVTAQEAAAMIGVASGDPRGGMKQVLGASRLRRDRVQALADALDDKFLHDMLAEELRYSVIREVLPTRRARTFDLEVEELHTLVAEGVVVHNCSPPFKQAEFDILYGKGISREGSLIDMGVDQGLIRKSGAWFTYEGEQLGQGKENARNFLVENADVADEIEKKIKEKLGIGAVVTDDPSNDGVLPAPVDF

[17] = biological target: T7, Sentrin-specific protease 8 (Homo sapiens, UniProt Q96LD8); type: functional
T7 sequence (Q96LD8 whole entry): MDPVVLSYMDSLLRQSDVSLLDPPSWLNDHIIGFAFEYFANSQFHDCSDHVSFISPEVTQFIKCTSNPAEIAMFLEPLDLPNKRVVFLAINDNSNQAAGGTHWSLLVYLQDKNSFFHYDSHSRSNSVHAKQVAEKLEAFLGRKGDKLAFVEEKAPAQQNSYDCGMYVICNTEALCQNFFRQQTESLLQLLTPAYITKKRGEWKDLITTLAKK

[18] = biological target: T7, Sentrin-specific protease 8; type: functional; remark: listed apart in the source

T3 sequence (P63165 whole entry): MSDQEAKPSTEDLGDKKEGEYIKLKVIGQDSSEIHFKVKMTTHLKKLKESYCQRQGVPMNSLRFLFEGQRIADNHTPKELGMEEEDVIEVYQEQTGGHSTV
COUP transcription factor 2, sequence (P24468 whole entry): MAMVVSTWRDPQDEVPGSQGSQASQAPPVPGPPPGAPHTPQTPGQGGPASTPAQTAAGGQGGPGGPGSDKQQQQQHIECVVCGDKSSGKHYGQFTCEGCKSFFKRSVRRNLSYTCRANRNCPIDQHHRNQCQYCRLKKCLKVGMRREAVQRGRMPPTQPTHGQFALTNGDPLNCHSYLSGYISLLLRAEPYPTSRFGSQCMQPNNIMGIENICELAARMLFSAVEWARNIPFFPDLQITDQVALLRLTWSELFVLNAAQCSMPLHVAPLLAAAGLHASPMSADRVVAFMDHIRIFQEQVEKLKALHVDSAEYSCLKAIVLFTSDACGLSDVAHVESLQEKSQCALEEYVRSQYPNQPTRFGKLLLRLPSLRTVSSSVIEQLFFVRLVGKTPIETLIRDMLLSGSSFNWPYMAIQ
Disintegrin and metalloproteinase domain-containing protein 17, sequence (P78536 whole entry, the tested form may be a part): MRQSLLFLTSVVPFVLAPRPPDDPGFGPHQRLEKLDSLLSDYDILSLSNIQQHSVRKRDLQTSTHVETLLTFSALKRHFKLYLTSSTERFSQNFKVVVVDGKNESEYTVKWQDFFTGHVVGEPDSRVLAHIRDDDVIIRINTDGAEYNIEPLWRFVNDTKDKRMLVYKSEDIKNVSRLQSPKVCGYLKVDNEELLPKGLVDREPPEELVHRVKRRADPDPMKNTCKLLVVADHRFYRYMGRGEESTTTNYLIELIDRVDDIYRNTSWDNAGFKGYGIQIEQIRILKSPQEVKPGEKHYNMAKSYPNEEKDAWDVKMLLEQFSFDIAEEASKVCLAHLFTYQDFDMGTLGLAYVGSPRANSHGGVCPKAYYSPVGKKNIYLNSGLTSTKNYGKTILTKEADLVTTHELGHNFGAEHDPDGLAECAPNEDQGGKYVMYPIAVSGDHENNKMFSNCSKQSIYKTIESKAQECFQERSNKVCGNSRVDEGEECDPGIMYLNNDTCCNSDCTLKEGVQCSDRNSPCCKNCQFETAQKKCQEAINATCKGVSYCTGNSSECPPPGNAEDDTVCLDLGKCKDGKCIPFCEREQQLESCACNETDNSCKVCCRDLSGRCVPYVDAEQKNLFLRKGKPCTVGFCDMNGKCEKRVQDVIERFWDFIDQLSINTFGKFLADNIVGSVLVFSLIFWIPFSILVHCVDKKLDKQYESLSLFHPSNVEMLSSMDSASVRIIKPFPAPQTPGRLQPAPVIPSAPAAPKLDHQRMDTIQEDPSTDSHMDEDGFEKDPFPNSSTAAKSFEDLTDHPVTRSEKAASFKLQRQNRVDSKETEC

## O=c1[nH]c(=O)n(Cc2ccco2)c2c1C(C(F)(F)F)(C(F)(F)F)NC(CCc1ccccc1)=N2
Major prion protein
  IC50: 8.51 µM (active)
Cells [1]
  IC50: 54.4 µM (inactive)

## Cc1c(CNCCc2ccccc2)c(C(=O)O)c(C)n1-c1ccccc1
[2]
  EC50: > 260 µM (inactive)
Cells [3]
  IC50: > 29.9 µM (inactive)
[4]
  EC50: 1.78 µM (active)
[5]
  IC50: 8.17 µM (active)
Cells [6]
  EC50: > 29.9 µM (inactive)

## O=C(Nc1ccc2oc(=O)ccc2c1)c1ccc(-c2cccc([N+](=O)[O-])c2)o1
Vero
  CC50: 8.41 µM (active)
[7]
  IC50: > 66.6 µM (inactive)
[8]
  IC50: 2.43 µM (active)
[9]
  IC50: 25.5 µM (inactive)

## Cc1nn(Cc2ccccc2Cl)c2sc(C(=O)NCc3ccc4c(c3)OCO4)cc12
[10]
  IC50: > 69.5 µM (inactive)
[11]
  IC50: > 69.5 µM (inactive)

## N#CCSc1nnc(-c2sc3ccccc3c2Cl)o1
[12]
  AC50: 46.4 µM (active)
[13]
  AC50: > 70 µM (inactive)
[14]
  AC50: 6.32 µM (active)
[15]
  IC50: 12 µM (inactive)

## CC1=NN(c2ccc(S(=O)(=O)O)cc2C)C(=O)C1
[16]
  AC50: 3.99 µM (active)
Protein RecA
  EC50: 4.57 µM (active)
[17]
  IC50: 28 µM (active)
[18]
  IC50: 21.8 µM (active)

## CCN(CC)c1ccc(NC2CC(=O)N(CCc3ccc(OC)cc3)C2=O)cc1 (stereo not drawn)
[17]
  IC50: > 100 µM (inactive)
[18]
  IC50: 45.2 µM (active)
